Columns and labels:
Format in all cases: functional
SK-N-SH [1] = test: Effect on IL1B mRNA expression in human SK-N-SH cells at EC10 by qPCR method relative to beta-actin
SK-N-SH [2] = test: Effect on EDNRA mRNA expression in human SK-N-SH cells at EC10 by qPCR method relative to beta-actin
SH-SY5Y [3] = test: Effect on FGF2 mRNA expression in human SH-SY5Y cells at EC10 by qPCR method relative to beta-actin
SK-N-SH [4] = test: Effect on FOXP3 mRNA expression in human SK-N-SH cells at EC10 by qPCR method relative to beta-actin
U-118-MG [5] = test: Effect on EDNRA mRNA expression in human U118MG cells at EC10 by qPCR method relative to beta-actin
U-118-MG [6] = test: Effect on IFNG mRNA expression in human U118MG cells at EC10 by qPCR method relative to beta-actin
SH-SY5Y [7] = test: Effect on COL1A1 mRNA expression in human SH-SY5Y cells at EC10 by qPCR method relative to beta-actin
U-118-MG [8] = test: Effect on JUN mRNA expression in human U118MG cells at EC10 by qPCR method relative to beta-actin
SH-SY5Y [9] = test: Effect on STAT3 mRNA expression in human SH-SY5Y cells at EC10 by qPCR method relative to beta-actin
SH-SY5Y [10] = test: Effect on CFLAR mRNA expression in human SH-SY5Y cells at EC10 by qPCR method relative to beta-actin
SH-SY5Y [11] = test: Effect on ADRB2 mRNA expression in human SH-SY5Y cells at EC10 by qPCR method relative to beta-actin
U-118-MG [12] = test: Effect on COL1A1 mRNA expression in human U118MG cells at EC10 by qPCR method relative to beta-actin
SH-SY5Y [13] = test: Effect on VEGFA mRNA expression in human SH-SY5Y cells at EC10 by qPCR method relative to beta-actin
SK-N-SH [14] = test: Effect on IL18 mRNA expression in human SK-N-SH cells at EC10 by qPCR method relative to beta-actin
SK-N-SH [15] = test: Effect on OPRD1 mRNA expression in human SK-N-SH cells at EC10 by qPCR method relative to beta-actin
SH-SY5Y [16] = test: Effect on JUN mRNA expression in human SH-SY5Y cells at EC10 by qPCR method relative to beta-actin
SH-SY5Y [17] = test: Effect on GRM1 mRNA expression in human SH-SY5Y cells at EC10 by qPCR method relative to beta-actin
U-118-MG [18] = test: Effect on PIK3CG mRNA expression in human U118MG cells at EC10 by qPCR method relative to beta-actin
SH-SY5Y [19] = test: Effect on AGTR2 mRNA expression in human SH-SY5Y cells at EC10 by qPCR method relative to beta-actin
U-118-MG [20] = test: Effect on AGTR2 mRNA expression in human U118MG cells at EC10 by qPCR method relative to beta-actin
U-118-MG [21] = test: Effect on EPHA1 mRNA expression in human U118MG cells at EC10 by qPCR method relative to beta-actin
SK-N-SH [22] = test: Effect on CYP19A1 mRNA expression in human SK-N-SH cells at EC10 by qPCR method relative to beta-actin
SK-N-SH [23] = test: Effect on VCAM1 mRNA expression in human SK-N-SH cells at EC10 by qPCR method relative to beta-actin
SK-N-SH [24] = test: Effect on CSF1 mRNA expression in human SK-N-SH cells at EC10 by qPCR method relative to beta-actin
U-118-MG [25] = test: Effect on CFLAR mRNA expression in human U118MG cells at EC10 by qPCR method relative to beta-actin
SK-N-SH [26] = test: Effect on TSHR mRNA expression in human SK-N-SH cells at EC10 by qPCR method relative to beta-actin
SK-N-SH [27] = test: Effect on ADRB2 mRNA expression in human SK-N-SH cells at EC10 by qPCR method relative to beta-actin
SH-SY5Y [28] = test: Effect on OPRD1 mRNA expression in human SH-SY5Y cells at EC10 by qPCR method relative to beta-actin
SH-SY5Y [29] = test: Effect on EPHA1 mRNA expression in human SH-SY5Y cells at EC10 by qPCR method relative to beta-actin
SK-N-SH [30] = test: Effect on GRM1 mRNA expression in human SK-N-SH cells at EC10 by qPCR method relative to beta-actin
U-118-MG [31] = test: Effect on AKT1 mRNA expression in human U118MG cells at EC10 by qPCR method relative to beta-actin
U-118-MG [32] = test: Effect on TSHR mRNA expression in human U118MG cells at EC10 by qPCR method relative to beta-actin
U-118-MG [33] = test: Effect on FGF2 mRNA expression in human U118MG cells at EC10 by qPCR method relative to beta-actin
SK-N-SH [34] = test: Effect on CCL3 mRNA expression in human SK-N-SH cells at EC10 by qPCR method relative to beta-actin
U-118-MG [35] = test: Effect on CCL2 mRNA expression in human U118MG cells at EC10 by qPCR method relative to beta-actin
SH-SY5Y [36] = test: Effect on CCL3 mRNA expression in human SH-SY5Y cells at EC10 by qPCR method relative to beta-actin
SH-SY5Y [37] = test: Effect on MAG mRNA expression in human SH-SY5Y cells at EC10 by qPCR method relative to beta-actin
SK-N-SH [38] = test: Effect on MAL mRNA expression in human SK-N-SH cells at EC10 by qPCR method relative to beta-actin
SK-N-SH [39] = test: Effect on ITGB2 mRNA expression in human SK-N-SH cells at EC10 by qPCR method relative to beta-actin
SH-SY5Y [40] = test: Effect on GRM5 mRNA expression in human SH-SY5Y cells at EC10 by qPCR method relative to beta-actin
U-118-MG [41] = test: Effect on CXCL10 mRNA expression in human U118MG cells at EC10 by qPCR method relative to beta-actin
U-118-MG [42] = test: Effect on APP mRNA expression in human U118MG cells at EC10 by qPCR method relative to beta-actin
U-118-MG [43] = test: Effect on ITGB2 mRNA expression in human U118MG cells at EC10 by qPCR method relative to beta-actin
U-118-MG [44] = test: Effect on TGFB2 mRNA expression in human U118MG cells at EC10 by qPCR method relative to beta-actin

SMILES: CCCCCCCCn1nnnc1CCC(N)(CO)CO.Cl
- fold change (FC) (SK-N-SH [1]): -4.7796
- fold change (FC) (SK-N-SH [2]): 7.0402
- fold change (FC) (SH-SY5Y [3]): -3.8516
- fold change (FC) (SK-N-SH [4]): -3.4447
- fold change (FC) (U-118-MG [5]): 4.4344
- fold change (FC) (U-118-MG [6]): -4.5394
- fold change (FC) (SH-SY5Y [7]): -4.939
- fold change (FC) (U-118-MG [8]): -5.0916
- fold change (FC) (SH-SY5Y [9]): -2.8938
- fold change (FC) (SH-SY5Y [10]): -3.1434
- fold change (FC) (SH-SY5Y [11]): -4.5291
- fold change (FC) (U-118-MG [12]): -5.8779
- fold change (FC) (SH-SY5Y [13]): -6.1896
- fold change (FC) (SK-N-SH [14]): -5.1137
- fold change (FC) (SK-N-SH [15]): 3.2561
- fold change (FC) (SH-SY5Y [16]): -4.7214
- fold change (FC) (SH-SY5Y [17]): -4.806
- fold change (FC) (U-118-MG [18]): -4.5938
- fold change (FC) (SH-SY5Y [19]): 8.9431
- fold change (FC) (U-118-MG [20]): 4.8726
- fold change (FC) (U-118-MG [21]): -4.2116
- fold change (FC) (SK-N-SH [22]): -5.5959
- fold change (FC) (SK-N-SH [23]): -5.4618
- fold change (FC) (SK-N-SH [24]): -3.004
- fold change (FC) (U-118-MG [25]): -2.9826
- fold change (FC) (SK-N-SH [26]): 5.2621
- fold change (FC) (SK-N-SH [27]): -4.3526
- fold change (FC) (SH-SY5Y [28]): 2.8007
- fold change (FC) (SH-SY5Y [29]): -6.2326
- fold change (FC) (SK-N-SH [30]): -5.0346
- fold change (FC) (U-118-MG [31]): -2.6892
- fold change (FC) (U-118-MG [32]): 3.1513
- fold change (FC) (U-118-MG [33]): -4.6964

SMILES: CCCCCCCCc1ccc(CCC(N)(CO)CO)cc1 [FINGOLIMOD]
- fold change (FC) (SK-N-SH [1]): -5.3866
- fold change (FC) (SK-N-SH [34]): -4.0682
- fold change (FC) (SK-N-SH [2]): 7.6112
- fold change (FC) (SH-SY5Y [3]): -8.2392
- fold change (FC) (SK-N-SH [4]): -4.444
- fold change (FC) (U-118-MG [5]): 3.242
- fold change (FC) (U-118-MG [6]): -5.5428
- fold change (FC) (U-118-MG [35]): -5.2826
- fold change (FC) (SH-SY5Y [7]): -5.0806
- fold change (FC) (U-118-MG [8]): -3.0183
- fold change (FC) (SH-SY5Y [9]): -5.5022
- fold change (FC) (SH-SY5Y [10]): -13.7609
- fold change (FC) (SH-SY5Y [11]): -11.1967
- fold change (FC) (U-118-MG [12]): -5.339
- fold change (FC) (SH-SY5Y [13]): -4.3696
- fold change (FC) (SK-N-SH [15]): 4.9782
- fold change (FC) (SH-SY5Y [16]): -3.5677
- fold change (FC) (SH-SY5Y [17]): -20.6061
- fold change (FC) (U-118-MG [18]): -3.7491
- fold change (FC) (SH-SY5Y [19]): 3.2887
- fold change (FC) (SH-SY5Y [36]): -4.8232
- fold change (FC) (SH-SY5Y [37]): 4.3772
- fold change (FC) (U-118-MG [20]): 4.8347
- fold change (FC) (SK-N-SH [38]): -4.2778
- fold change (FC) (U-118-MG [21]): -3.7679
- fold change (FC) (SK-N-SH [22]): -7.2069
- fold change (FC) (SK-N-SH [23]): -7.0341
- fold change (FC) (SK-N-SH [24]): -7.7644
- fold change (FC) (U-118-MG [25]): -3.53
- fold change (FC) (SK-N-SH [39]): -6.3947
- fold change (FC) (SH-SY5Y [40]): -3.3753
- fold change (FC) (SK-N-SH [26]): -4.4134
- fold change (FC) (SK-N-SH [27]): -6.7945
- fold change (FC) (SH-SY5Y [28]): 5.0193
- fold change (FC) (U-118-MG [41]): -8.4782
- fold change (FC) (U-118-MG [42]): -2.5646
- fold change (FC) (SH-SY5Y [29]): -6.442
- fold change (FC) (SK-N-SH [30]): -4.8631
- fold change (FC) (U-118-MG [31]): -2.5763
- fold change (FC) (U-118-MG [43]): -4.0523
- fold change (FC) (U-118-MG [32]): -3.664
- fold change (FC) (U-118-MG [33]): -4.2052

SMILES: CCCCCCCCn1nnnc1-c1ccc(C(O)CC(N)(CO)CO)cc1.Cl (stereo unspecified)
- fold change (FC) (SK-N-SH [34]): -5.716
- fold change (FC) (U-118-MG [35]): -5.2393
- fold change (FC) (SH-SY5Y [36]): -2.4869
- fold change (FC) (SH-SY5Y [37]): 2.631
- fold change (FC) (U-118-MG [41]): -4.8547
- fold change (FC) (U-118-MG [44]): -5.915
